Source: patent US7473789B2, “9-(1′,5′-dimethyl-1′-vinyl -4′- hexenyl)-4-hydroxy-7H-furo[3,2-γ] [1] benzopyran-7-one as antibacterial agent” (Takasago International Corporation, priority 2004, dated 2009)
Values after ≈ are worked out from the molar mass of the structure shown. Like-named read-outs stand apart in the source and are kept apart here. One block for each molecule: values may come before it.

Tests used:
Type in all cases: cell-based
[1] = test system: Staphyrococcus epidermidis JCM 2414; test: MIC by Agar Dilution Test, Se-1; conditions: read-out: Minimum inhibitory concentration (MIC)
Experimental: (§1) Minimum inhibitory concentration (MIC) was determined by Agar Dilution Test (ADT).
(§2) Samples were dissolved in ethanol or water (according to solubility of each sample) to carry out two-fold serial dilution. A hundred μl of the resultant was added to a 10 ml sterilized agar medium (skin-related bacteria and standard bacteria in Mueller-Hinton Medium (Difco), yeast and filamentous bacteria in Sabroud Medium (Difco) and anaerobic bacteria in Trypticase Soy agar(BBL)), well agitated, transferred to a 9 cmf petri dish and immobilized at room temperature. To this petri dish, a 27-spot microplanter MIT-P from Sakuma Seisakusho, LTD. was used to spot 1×10^5 cfu (colony forming unit) of skin-related bacteria and standard bacteria, and the resultants were cultured at 37° C. for 18 hours. Yeast and filamentous bacteria were spotted for 5000 cfu (except Cg-1 was 50˜100 cfu) and cultured at 27° C. for 72 hours. Anaerobic bacteria were cultured at 37° C. for 72 hours under anaerobic conditions (using BBL gas pack anaerobic system). After completion of cultivation, growth of each bacterium was compared with that in a petri dish with alcohol alone (blank). A concentration of a sample without a bacterium growth was determined as the minimum inhibitory concentration (MIC).
(§3) As comparative substances, butylparaben (BPHB) and triclosan were determined as well.

[2] = test system: Staphyrococcus epidermidis var. h-6 Takasago isolate; test: MIC by Agar Dilution Test, Se-2; conditions: read-out: Minimum inhibitory concentration (MIC)
Experimental: as §1, §2, §3

[3] = test system: Corynebacterium minutissimum IFO 15361; test: MIC by Agar Dilution Test, Cm-1; conditions: read-out: Minimum inhibitory concentration (MIC)
Experimental: as §1, §2, §3

[4] = test system: Corynebacterium xerosis JCM 1324; test: MIC by Agar Dilution Test, Cx-2; conditions: read-out: Minimum inhibitory concentration (MIC)
Experimental: as §1, §2, §3

[5] = test system: Malassezia furfur IFO 0656; test: MIC by Agar Dilution Test, Mf-1; conditions: read-out: Minimum inhibitory concentration (MIC)
Experimental: as §1, §2, §3

[6] = test system: Staphyrococcus aureus 209P IAM 12082; test: MIC by Agar Dilution Test, Sa-3; conditions: read-out: Minimum inhibitory concentration (MIC)
Experimental: as §1, §2, §3

[7] = test system: Bacillus subtilis PCI 219 IFO 3134; test: MIC by Agar Dilution Test, Bs-1; conditions: read-out: Minimum inhibitory concentration (MIC)
Experimental: as §1, §2, §3

[8] = test system: Staphyrococcus epidermidis ATCC 12228; test: MIC by Agar Dilution Test, Se-3; conditions: read-out: Minimum inhibitory concentration (MIC)
Experimental: as §1, §2, §3

[9] = test system: Staphyrococcus aureus ATCC 6538; test: MIC by Agar Dilution Test, Sa-4; conditions: read-out: Minimum inhibitory concentration (MIC)
Experimental: as §1, §2, §3

[10] = test system: Propionibacterium acnes JCM 6473; test: MIC by Agar Dilution Test, Pa-2; conditions: Cutibacterium acnes, read-out: Minimum inhibitory concentration (MIC)
Experimental: as §1, §2, §3

[11] = test system: Propionibacterium acnes ATCC 6919; test: MIC by Agar Dilution Test, Pa-3; conditions: Cutibacterium acnes, read-out: Minimum inhibitory concentration (MIC)
Experimental: as §1, §2, §3

[12] = test system: Bacteroides fragilis GM 7000 JCM 5560; test: MIC by Agar Dilution Test, Bf-1; conditions: read-out: Minimum inhibitory concentration (MIC)
Experimental: as §1, §2, §3

[13] = test system: Streptococcus mutans JCM 5175; test: MIC by Agar Dilution Test, Su-1; conditions: read-out: Minimum inhibitory concentration (MIC)
Experimental: as §1, §2, §3

[14] = test system: Fusobacterium nucleatum JCM 6328; test: MIC by Agar Dilution Test, Fn-1; conditions: read-out: Minimum inhibitory concentration (MIC)
Experimental: as §1, §2, §3

[15] = test system: Porphyromonas gingivalis JCM 8525; test: MIC by Agar Dilution Test, Pg-1; conditions: read-out: Minimum inhibitory concentration (MIC)
Experimental: as §1, §2, §3

[16] = test system: Prevotella intermedia JCM 6322; test: MIC by Agar Dilution Test, Pt-1; conditions: read-out: Minimum inhibitory concentration (MIC)
Experimental: as §1, §2, §3

[17] = test system: Actinomyces naeslundii JCM 8350; test: MIC by Agar Dilution Test, Aa-1; conditions: read-out: Minimum inhibitory concentration (MIC)
Experimental: as §1, §2, §3

[18] = test system: Actinomyces viscosus JCM 8352; test: MIC by Agar Dilution Test, Av-1; conditions: read-out: Minimum inhibitory concentration (MIC)
Experimental: as §1, §2, §3

Compound: Oc1cc(Cl)ccc1Oc1ccc(Cl)cc1Cl [Triclosan]
MIC ([1]; 18 h): 1.6 µg/mL (≈ 5.53 µM)
MIC ([2]; 18 h): 1.6 µg/mL (≈ 5.53 µM)
MIC ([3]; IFO15361, 18 h): 1.6 µg/mL (≈ 5.53 µM)
MIC ([4]; JCM1324, 18 h): 3.1 µg/mL (≈ 10.7 µM)
MIC ([5]; 72 h): 1.6 µg/mL (≈ 5.53 µM)
MIC ([6]; 18 h): 1.6 µg/mL (≈ 5.53 µM)
MIC ([7]; IFO3134, 18 h): 0.78 µg/mL (≈ 2.69 µM)
MIC ([8]; 18 h): 1.6 µg/mL (≈ 5.53 µM)
MIC ([9]; 18 h): 1.6 µg/mL (≈ 5.53 µM)

MIC ([1]; Se-1, Mueller-Hinton Medium, 1×10^5 cfu, 37° C. for 18 hours): 3.1 µg/mL (≈ 9.16 µM)
MIC ([2]; Se-2, Mueller-Hinton Medium, 1×10^5 cfu, 37° C. for 18 hours): 3.1 µg/mL (≈ 9.16 µM)
MIC ([3]; IFO15361, Cm-1, Mueller-Hinton Medium, 1×10^5 cfu, 37° C. for 18 hours): 3.1 µg/mL (≈ 9.16 µM)
MIC ([4]; JCM1324, Cx-2, Mueller-Hinton Medium, 1×10^5 cfu, 37° C. for 18 hours): 3.1 µg/mL (≈ 9.16 µM)
MIC ([5]; Mf-1 (yeast), Sabroud Medium, 5000 cfu, 27° C. for 72 hours): 3.1 µg/mL (≈ 9.16 µM)
MIC ([6]; Sa-3, Mueller-Hinton Medium, 1×10^5 cfu, 37° C. for 18 hours): 3.1 µg/mL (≈ 9.16 µM)
MIC ([7]; IFO3134, Bs-1, Mueller-Hinton Medium, 1×10^5 cfu, 37° C. for 18 hours): 3.1 µg/mL (≈ 9.16 µM)
MIC ([8]; Se-3, Mueller-Hinton Medium, 1×10^5 cfu, 37° C. for 18 hours): 3.1 µg/mL (≈ 9.16 µM)
MIC ([9]; Sa-4, Mueller-Hinton Medium, 1×10^5 cfu, 37° C. for 18 hours): 3.1 µg/mL (≈ 9.16 µM)
MIC ([10]; JCM6473, Pa-2, Trypticase Soy agar, 37° C. for 72 hours, anaerobic conditions): 3.1 µg/mL (≈ 9.16 µM)
MIC ([11]; ATCC6919, Pa-3, Trypticase Soy agar, 37° C. for 72 hours, anaerobic conditions): 3.1 µg/mL (≈ 9.16 µM)
MIC ([12]; JCM5560, Bf-1, Trypticase Soy agar, 37° C. for 72 hours, anaerobic conditions): 1.6 µg/mL (≈ 4.73 µM)
MIC ([13]; JCM5175, Su-1, Trypticase Soy agar, 37° C. for 72 hours, anaerobic conditions): 6.3 µg/mL (≈ 18.6 µM)
MIC ([14]; JCM6328, Fn-1, Trypticase Soy agar, 37° C. for 72 hours, anaerobic conditions): 1.6 µg/mL (≈ 4.73 µM)
MIC ([15]; JCM8525, Pg-1, Trypticase Soy agar, 37° C. for 72 hours, anaerobic conditions): 1.6 µg/mL (≈ 4.73 µM)
MIC ([16]; JCM6322, Pt-1, Trypticase Soy agar, 37° C. for 72 hours, anaerobic conditions): 1.6 µg/mL (≈ 4.73 µM)
MIC ([17]; JCM8350, Aa-1, Trypticase Soy agar, 37° C. for 72 hours, anaerobic conditions): 3.1 µg/mL (≈ 9.16 µM)
MIC ([18]; JCM8352, Av-1, Trypticase Soy agar, 37° C. for 72 hours, anaerobic conditions): 3.1 µg/mL (≈ 9.16 µM)
Compound: C=CC(C)(CCC=C(C)C)c1c2occc2c(O)c2ccc(=O)oc12 (stereo not drawn) [9-(1′,5′-dimethyl-1′-vinyl-4′-hexenyl)-4-hydroxy-7H-furo[3,2-γ][1]benzopyran-7-one]

Compound: CCCCOC(=O)c1ccc(O)cc1 [Butylparaben, butylparaben]
MIC ([1]; 18 h): 200 µg/mL (≈ 1030 µM)
MIC ([2]; 18 h): 200 µg/mL (≈ 1030 µM)
MIC ([3]; IFO15361, 18 h): 200 µg/mL (≈ 1030 µM)
MIC ([4]; JCM1324, 18 h): 50 µg/mL (≈ 257 µM)
MIC ([5]; 72 h): 100 µg/mL (≈ 515 µM)
MIC ([6]; 18 h): 100 µg/mL (≈ 515 µM)
MIC ([7]; IFO3134, 18 h): 200 µg/mL (≈ 1030 µM)
MIC ([8]; 18 h): 200 µg/mL (≈ 1030 µM)
MIC ([9]; 18 h): 200 µg/mL (≈ 1030 µM)
MIC ([10]; JCM6473, 72 h): 100 µg/mL (≈ 515 µM)
MIC ([11]; ATCC6919, 72 h): 100 µg/mL (≈ 515 µM)
MIC ([12]; JCM5560, 72 h): 50 µg/mL (≈ 257 µM)
MIC ([13]; JCM5175, 72 h): 200 µg/mL (≈ 1030 µM)
MIC ([14]; JCM6328, 72 h): 100 µg/mL (≈ 515 µM)
MIC ([15]; JCM8525, 72 h): 50 µg/mL (≈ 257 µM)
MIC ([16]; JCM6322, 72 h): 100 µg/mL (≈ 515 µM)
MIC ([17]; JCM8350, 72 h): 100 µg/mL (≈ 515 µM)
MIC ([18]; JCM8352, 72 h): 100 µg/mL (≈ 515 µM)
